# Measured values from patent publication US7168937B2, “Method for the enzymatic resolution of the racemates of aminomethyl-aryl-cyclohexanol derivatives” (Gruenenthal GmbH, priority 2000, dated 2007).
# Like-named read-outs stand apart in the source and are kept apart here.
# Legend:
# Assay type in all cases: physicochemical
# [1] = logP and logD values water/cyclohexane; conditions: for ΔlogP value at pH 7.4: difference of logP water/octanol and water/cyclohexane; for ΔlogD value at pH 7.4: pH 7.4, difference of logD water/octanol and water/cyclohexane
# [2] = pKa values of the compounds 1 and 2
# [3] = logP and logD values water/octanol; conditions: for logD: pH 7.4, water/octanol; for logP: water/octanol
# [4] = pH 7.4, water/cyclohexane, read-out: logD value at pH 7.4 water/cyclohexane
# [5] = water/cyclohexane, read-out: logP value: water/cyclohexane
Compound,ΔlogP value at pH 7.4 [1],ΔlogD value at pH 7.4 [1],"logD hydrocarbon water [1, 4]","logD hydrocarbon water [1, 5]",pKa [2],logD [3],logP [3]
"COc1cccc([C@@]2(O)CC[C@H](O)C[C@@H]2CN(C)C)c1 (racemic) [Compound 2, (1RS,2RS,4SR)-2-dimethylaminomethyl-1-(3-methoxy-phenyl)-cyclohexane-1,4-diol]",1.733,1.733,-2.3,-0.632,9.05,-0.564,1.1
"CCCC(=O)O[C@H]1CC[C@](O)(c2cccc(OC)c2)[C@@H](CN(C)C)C1 (racemic) [Compound 1, (1SR,3RS,4RS)-butyric acid 3-dimethylaminomethyl-4-hydroxy-4-(3-methoxy-phenyl)-cyclohexyl ester]",0.538,0.538,0.946,2.36,8.8,1.48,2.9
